The target of this assay is T1, IRAK4 (Homo sapiens, UniProt Q9NWZ3).
T1 construct: knocking-in a HiBiT fusion tag into the C-terminal of the IRAK4 gene in 293T cells; host or cells: 293T cells, knock-in of HiBiT at the endogenous IRAK4 locus
T1 sequence (Q9NWZ3 1-460): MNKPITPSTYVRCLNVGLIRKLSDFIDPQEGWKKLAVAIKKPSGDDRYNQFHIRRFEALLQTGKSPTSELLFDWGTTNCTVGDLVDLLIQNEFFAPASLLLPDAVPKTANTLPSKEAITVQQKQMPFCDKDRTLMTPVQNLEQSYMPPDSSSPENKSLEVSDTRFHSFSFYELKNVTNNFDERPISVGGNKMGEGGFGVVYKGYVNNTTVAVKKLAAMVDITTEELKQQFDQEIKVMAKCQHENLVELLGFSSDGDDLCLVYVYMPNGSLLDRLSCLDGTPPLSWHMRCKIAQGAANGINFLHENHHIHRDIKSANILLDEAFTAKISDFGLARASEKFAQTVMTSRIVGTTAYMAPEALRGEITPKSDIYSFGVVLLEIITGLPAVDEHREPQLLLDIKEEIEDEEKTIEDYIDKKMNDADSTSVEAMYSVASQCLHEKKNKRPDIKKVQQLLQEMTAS
The assay is described as follows: IRAK4 degradation assay using the HiBiT Method. Type of assay: cell-based. As to conditions: 293T cells expressing HiBiT-tagged IRAK4; 6-hour incubation; Nano-Glo HiBiT Lytic Assay luminescence. The method, then: Selected compounds were tested in an IRAK4 degradation assay using the HiBiT Method.
Phenol red-free Dulbecco's modified Eagle medium (DMEM) and fetal bovine serum (FBS) were purchased from Gibco (Grand Island, NY, USA). The Nano-Glo© HiBiT Lytic Assay System was purchased from Promega (Madison, WI, USA). Cell culture flasks and 384-well microplates were acquired from VWR (Radnor, PA, USA). The 293T cell line was engineered by knocking-in a HiBiT fusion tag into the C-terminal of the IRAK4 gene in 293T cells (Synthego, Redwood City, CA, USA).
IRAK4 degradation was measured via the quantification of luminescent signals using the Nano-Glo© HiBiT Lytic Assay kit. Test compounds were added to 384-well plates in duplicate using an 11-point half-log dilution series, with the highest dose set at 10 mM. 293T cells expressing HiBiT-tagged IRAK4 were then added into 384-well plates at a cell density of 10,000 cells per well. The plates were kept at 37° C. with 5% CO2 for 6 hours. Cells that were treated only with DMSO served as the negative control; wells that contained only assay media served as the background control. After the 6-hour incubation, Nano-Glo® HiBiT Lytic Assay reagents were added to the cells. Luminescence was acquired using an EnVision® Multilabel Reader (PerkinElmer, Santa Clara, CA, USA).
On the technique in general: The HiBiT peptide binds its large partner to form an active luciferase.

Structures are written as SMILES. A value given as a limit tells only on which side of the number the result lay.

The DC50 is the concentration at which degradation of the target reaches its halfway point. A low value points to degradation at low concentration.

In turn, `CC(C)Oc1cc2nc(C3CCC(CN4CCC(c5ccc(C6CCC(=O)NC6=O)cc5)CC4)CC3)cn2cc1NC(=O)c1cccc(C(F)(F)F)n1` (centres unmarked) [Example 35, N-[2-[4-[[4-[4-(2,6-dioxo-3-piperidyl)phenyl]-1-piperidyl]methyl]cyclohexyl]-7-isopropoxy-imidazo[1,2-a]pyridin-6-yl]-6-(trifluoromethyl)pyridine-2-carboxamide] registered a DC50 of 0.1 to 0.5 µM.
`CC(C)Oc1cc2nc([C@H]3CC[C@H](CN(C)C4CCN(c5ccc(NC6CCC(=O)NC6=O)cc5)CC4)CC3)cn2cc1NC(=O)c1cccc(C(F)(F)F)n1` (some centres unmarked) [Example 36, N-[2-[4-[[[1-[4-[(2,6-dioxo-3-piperidyl)amino]phenyl]-4-piperidyl]-methyl-amino]methyl]cyclohexyl]-7-isopropoxy-imidazo[1,2-a]pyridin-6-yl]-6-(trifluoromethyl)pyridine-2-carboxamide] gave a DC50 of 0.01 to 0.1 µM.
`CC(C)Oc1cc2nc([C@H]3CC[C@H](CN4CCC(c5cccc6c5n(C)c(=O)n6C5CCC(=O)NC5=O)CC4)CC3)cn2cc1NC(=O)c1cccc(C(F)(F)F)n1` (some centres unmarked) [Example 37, N-[2-[4-[[4-[1-(2,6-dioxo-3-piperidyl)-3-methyl-2-oxo-benzimidazol-4-yl]-1-piperidyl]methyl]cyclohexyl]-7-isopropoxy-imidazo[1,2-a]pyridin-6-yl]-6-(trifluoromethyl)pyridine-2-carboxamide] returned a DC50 of 0.01 to 0.1 µM.
`CC(C)Oc1cc2nc([C@H]3CC[C@H](CN4CCC(c5cccc(NC6CCC(=O)NC6=O)c5F)CC4)CC3)cn2cc1NC(=O)c1cccc(C(F)(F)F)n1` (some centres unmarked) [Example 38, N-[2-[4-[[4-[3-[(2,6-dioxo-3-piperidyl)amino]-2-fluoro-phenyl]-1-piperidyl]methyl]cyclohexyl]-7-isopropoxy-imidazo[1,2-a]pyridin-6-yl]-6-(trifluoromethyl)pyridine-2-carboxamide] showed a DC50 of 0.1 to 0.5 µM.
On to `CC(C)Oc1cc2nc([C@H]3CC[C@H](CN4CCC(c5cccc(NC6CCC(=O)NC6=O)c5)CC4)CC3)cn2cc1NC(=O)c1cccc(C(F)(F)F)n1` (some centres unmarked) [Example 39, N-[2-[4-[[4-[3-[(2,6-dioxo-3-piperidyl)amino]phenyl]-1-piperidyl]methyl]cyclohexyl]-7-isopropoxy-imidazo[1,2-a]pyridin-6-yl]-6-(trifluoromethyl)pyridine-2-carboxamide], for which the DC50 fell in the range of 0.1 to 0.5 µM.
`CC(C)Oc1cc2nc([C@H]3CC[C@H](CN(C)C4CCN(c5ccc(C6CCC(=O)NC6=O)cc5)CC4)CC3)cn2cc1NC(=O)c1cccc(C(F)(F)F)n1` (some centres unmarked) [Example 40, N-[2-[4-[[[1-[4-(2,6-dioxo-3-piperidyl)phenyl]-4-piperidyl]-methyl-amino]methyl]cyclohexyl]-7-isopropoxy-imidazo[1,2-a]pyridin-6-yl]-6-(trifluoromethyl)pyridine-2-carboxamide]: the DC50 was 0.1 to 0.5 µM.
`CC(C)Oc1cc2nc([C@H]3CC[C@H](CN4CCC(c5ccc(C6CCC(=O)NC6=O)cc5F)CC4)CC3)cn2cc1NC(=O)c1cccc(C(F)(F)F)n1` (some centres unmarked) [Example 41, N-[2-[4-[[4-[4-(2,6-dioxo-3-piperidyl)-2-fluoro-phenyl]-1-piperidyl]methyl]cyclohexyl]-7-isopropoxy-imidazo[1,2-a]pyridin-6-yl]-6-(trifluoromethyl)pyridine-2-carboxamide] gave a DC50 of 0.1 to 0.5 µM.
As for `CC(C)Oc1cc2nc([C@H]3CC[C@H](CN(C)C4CCN(c5cccc6c5n(C)c(=O)n6C5CCC(=O)NC5=O)CC4)CC3)cn2cc1NC(=O)c1cccc(C(F)(F)F)n1` (some centres unmarked) [Example 42, N-[2-[4-[[[1-[1-(2,6-dioxo-3-piperidyl)-3-methyl-2-oxo-benzimidazol-4-yl]-4-piperidyl]-methyl-amino]methyl]cyclohexyl]-7-isopropoxy-imidazo[1,2-a]pyridin-6-yl]-6-(trifluoromethyl)pyridine-2-carboxamide], the DC50 is 0.1 to 0.5 µM.
Molecule `CC(C)Oc1cc2nc([C@H]3CC[C@H](CN(C)C4CCN(c5cccc(C6CCC(=O)NC6=O)c5)CC4)CC3)cn2cc1NC(=O)c1cccc(C(F)(F)F)n1` (some centres unmarked) [Example 43, N-[2-[4-[[[1-[3-(2,6-dioxo-3-piperidyl)phenyl]-4-piperidyl]-methyl-amino]methyl]cyclohexyl]-7-isopropoxy-imidazo[1,2-a]pyridin-6-yl]-6-(trifluoromethyl)pyridine-2-carboxamide] gave a DC50 of 0.1 to 0.5 µM.
The result for `CC(C)Oc1cc2nc([C@H]3CC[C@H](CN(C)C4CCN(c5cccc(NC6CCC(=O)NC6=O)c5)CC4)CC3)cn2cc1NC(=O)c1cccc(C(F)(F)F)n1` (some centres unmarked) [Example 44, N-[2-[4-[[[1-[3-[(2,6-dioxo-3-piperidyl)amino]phenyl]-4-piperidyl]-methyl-amino]methyl]cyclohexyl]-7-isopropoxy-imidazo[1,2-a]pyridin-6-yl]-6-(trifluoromethyl) pyridine-2-carboxamide] reads 0.1 to 0.5 µM; that for `CC(C)Oc1cc2nc([C@H]3CC[C@H](CN(C)C4CCN(c5ccc6c(c5)n(C)c(=O)n6C5CCC(=O)NC5=O)CC4)CC3)cn2cc1NC(=O)c1cccc(C(F)(F)F)n1` (some centres unmarked) [Example 45, N-[2-[4-[[[1-[1-(2,6-dioxo-3-piperidyl)-3-methyl-2-oxo-benzimidazol-5-yl]-4-piperidyl]-methyl-amino]methyl]cyclohexyl]-7-isopropoxy-imidazo[1,2-a]pyridin-6-yl]-6-(trifluoromethyl)pyridine-2-carboxamide], 0.5 to 1 µM.
Regarding `CC(C)Oc1cc2nc([C@H]3CC[C@H](CN(C)C4CCN(Cc5cccc(NC6CCC(=O)NC6=O)c5)CC4)CC3)cn2cc1NC(=O)c1cccc(C(F)(F)F)n1` (some centres unmarked) [Example 46, N-[2-[4-[[[1-[[3-[(2,6-dioxo-3-piperidyl)amino]phenyl]methyl]-4-piperidyl]-methyl-amino]methyl]cyclohexyl]-7-isopropoxy-imidazo[1,2-a]pyridin-6-yl]-6-(trifluoromethyl) pyridine-2-carboxamide], the DC50 was > 1 µM.
Consider `CC(C)Oc1cc2nc(C3CCC(CN4CCC(c5ccc6c(c5)n(C)c(=O)n6C5CCC(=O)NC5=O)CC4)CC3)cn2cc1NC(=O)c1cccc(C(F)(F)F)n1` (centres unmarked) [Example 47, N-[2-[4-[[4-[1-(2,6-dioxo-3-piperidyl)-3-methyl-2-oxo-benzimidazol-5-yl]-1-piperidyl]methyl]cyclohexyl]-7-isopropoxy-imidazo[1,2-a]pyridin-6-yl]-6-(trifluoromethyl)pyridine-2-carboxamide], for which the DC50 lay within 0.1 to 0.5 µM.
As for `CC(C)Oc1cc2nn(C3CCN(CC(=O)N4CCC(c5ccc(NC6CCC(=O)NC6=O)cc5)CC4)CC3)cc2cc1NC(=O)c1cccc(C(F)(F)F)n1` (centres unmarked) [Example 49, N-(2-(1-(2-(4-(4-((2,6-dioxopiperidin-3-yl)amino)phenyl)piperidin-1-yl)-2-oxoethyl)piperidin-4-yl)-6-isopropoxy-2H-indazol-5-yl)-6-(trifluoromethyl) picolinamide], the DC50 is 0.01 to 0.1 µM.
For `CC(C)Oc1cc2nn(C3CCN(CC(=O)N4CCC(c5ccc(NC6CCC(=O)NC6=O)cc5F)CC4)CC3)cc2cc1NC(=O)c1cccc(C(F)(F)F)n1` (centres unmarked) [Example 50, N-[2-[1-[2-[4-[4-[(2,6-dioxo-3-piperidyl)amino]-2-fluoro-phenyl]-1-piperidyl]-2-oxo-ethyl]-4-piperidyl]-6-isopropoxy-indazol-5-yl]-6-(trifluoromethyl)pyridine-2-carboxamide] the value was 0.01 to 0.1 µM; for `CC(C)Oc1cc2nn(C3CCN(C(=O)CN4CCC(c5ccc(NC6CCC(=O)NC6=O)cc5)CC4)CC3)cc2cc1NC(=O)c1cccc(C(F)(F)F)n1` (centres unmarked) [Example 51, N-[2-[1-[2-[4-[4-[(2,6-dioxo-3-piperidyl)amino]phenyl]-1-piperidyl]acetyl]-4-piperidyl]-6-isopropoxy-indazol-5-yl]-6-(trifluoromethyl)pyridine-2-carboxamide], 0.01 to 0.1 µM.
`CC(C)Oc1cc2nn(C3CCN(C(=O)CN4CCC(c5ccc(NC6CCC(=O)NC6=O)cc5F)CC4)CC3)cc2cc1NC(=O)c1cccc(C(F)(F)F)n1` (centres unmarked) [Example 52, N-(2-(1-(2-(4-(4-((2,6-dioxopiperidin-3-yl)amino)-2-fluorophenyl)piperidin-1-yl)acetyl)piperidin-4-yl)-6-isopropoxy-2H-indazol-5-yl)-6-(trifluoromethyl)picolinamide] displayed a DC50 of 0.01 to 0.1 µM.

The values above are taken from patent US20250018046A1, “COMPOUNDS FOR TARGETING DEGRADATION OF IRAK4 PROTEINS” (BIOGEN MA INC, priority 2021, published 2025).
